Like-named read-outs stand apart in the source and are kept apart here. Marks after values point to notes of the source that are not given here.
What was measured:
[1] = Noncompartmental plasma pharmacokinetics in phase 1b study; format: in vivo, human; details: for Tmax / half-life / AUC(0-t) / Cmax / AUC(0-inf) / Vd/F: human, plasma; for Cmax: geometric mean (CV%); for Vd/F: read-out: VZ/F
Procedure: PK analyses were conducted on patients who received at least one dose of galunisertib and had PK samples collected. The PK parameters for galunisertib were calculated by standard noncompartmental methods of analysis using Phoenix™ WinNonlin® 6.4 (Pharsight, A Certara Company; Princeton, NJ, USA). The maximum plasma concentration, time to maximum plasma concentration (tmax), area under the plasma concentration versus time curve from time zero to the last time point with a measurable concentration, and area under the plasma concentration-time curve from time zero to infinity, half-life (t1/2), apparent total body clearance (CL/F), and apparent volume of distribution during the terminal phase (Vz/F) that could be calculated from the data were reported for galunisertib from the noncompartmental PK analyses. Sorafenib PK profiles on day 22 (sorafenib monotherapy) were compared with sorafenib PK profiles on day 14 (administration of galunisertib in combination with sorafenib) within the same patient and in each cohort.

[2] = tested on: advanced HCC; set-up: method as in earlier work; details: galunisertib monotherapy, cited from earlier work
[3] = tested on: Japanese patients with unresectable hepatocellular carcinoma; assay: Safety and tolerability (DLTs, TEAEs, SAEs, QTc) in phase 1b study; details: for 14 days (then 14 days rest), in combination with sorafenib
Procedure: All eligible patients in this phase 1b, open-label, dose-escalation, multicenter, nonrandomized study received oral administration of galunisertib (160 mg or 300 mg/day) in combination with oral administration of sorafenib 800 mg/day. A cycle was defined as 28 days. Galunisertib was administered at either 80 mg twice daily or 150 mg twice daily for 14 days, followed by 14 days of galunisertib treatment rest, and sorafenib 400 mg twice daily for 28 days. Patients continued treatment until a discontinuation criterion was met.
The DLT evaluation period was 28 days after the first dose. Tolerability was defined as a dose where 2 or fewer of 6 patients experience DLTs. A minimum of 3 patients were planned to be enrolled in the galunisertib 160 mg/day plus sorafenib group, and a minimum of 6 patients were planned to be enrolled in the galunisertib 300 mg/day plus sorafenib group. […]
The sample size was determined based on the study design to evaluate the DLTs, safety, and tolerability of galunisertib in two sequential study treatment groups. […] Patients without a DLT who discontinued the study in cycle 1 due to disease progression, or discontinued sorafenib in cycle 1 for reasons other than disease progression, were assessed for appropriateness of DLT evaluation per Efficacy and Safety Evaluation Committee recommendations. […]

[4] = tested on: HCC; set-up: method as in PMID 18650514; details: sorafenib arm, global SHARP study; cited from earlier work
[5] = po, Galunisertib 160 mg/day plus sorafenib, Cycle 1 Day 14, geometric mean (CV%), n = 3
[6] = po, Galunisertib 300 mg/day plus sorafenib, Cycle 1 Day 14, geometric mean (CV%), n = 3

**Q.** For `Cc1cccc(-c2nn3c(c2-c2ccnc4ccc(C(N)=O)cc24)CCC3)n1` [Galunisertib, galunisertib], which CL/F ([1]; Galunisertib 160 mg/day plus sorafenib, Cycle 1 Day 14, geometric mean (CV%), n = 3) is on record?
**A.** 10.1 (4)^d L/h

**Q.** And the CL/F ([1]; Galunisertib 160 mg/day plus sorafenib, Cycle 1 Day 14, geometric mean (CV%), n = 3, listed as galunisertib)?
**A.** 10.1 L/h

**Q.** What about the CL/F ([1]; Galunisertib 300 mg/day plus sorafenib, Cycle 1 Day 14, geometric mean (CV%), n = 3) of the same compound?
**A.** 13.5 (9)^d L/h

**Q.** And the CL/F ([1]; Galunisertib 300 mg/day plus sorafenib, Cycle 1 Day 14, geometric mean (CV%), n = 3, listed as galunisertib)?
**A.** 13.5 L/h

**Q.** And the Tmax ([1]; oral, both galunisertib doses (160 and 300 mg/day) plus sorafenib, post-dose, read-out: median tmax)?
**A.** 1 to 2 h

**Q.** What about the half-life ([1]; oral, both galunisertib doses (160 and 300 mg/day) plus sorafenib, read-out: mean t1/2 (converted)) of the same compound?
**A.** ~4 h

**Q.** What about the AUC(0-t) ([1]; po, 160 mg/day, Galunisertib 160 mg/day plus sorafenib, Cycle 1 Day 1, geometric mean (CV%), N 7, read-out: AUC(0-6)) of the same compound?
**A.** 2800 ng·h/mL

**Q.** And the Tmax ([1]; po, 160 mg/day, Galunisertib 160 mg/day plus sorafenib, Cycle 1 Day 1, median (range), N 7, read-out: tmax)?
**A.** 1.93 h

**Q.** And the Cmax ([1]; po, 160 mg/day, Galunisertib 160 mg/day plus sorafenib, Cycle 1 Day 1, plasma, N 7)?
**A.** 899 ng/mL

**Q.** What about the AUC(0-t) ([1]; po, 160 mg/day, Galunisertib 160 mg/day plus sorafenib, Cycle 1 Day 14, geometric mean (CV%), N 7, read-out: AUC(0-6)) of the same compound?
**A.** 3670 ng·h/mL

**Q.** What about the AUC(0-t) ([1]; po, 160 mg/day, Galunisertib 160 mg/day plus sorafenib, Cycle 1 Day 14, geometric mean (CV%), n = 6, read-out: AUC(0–24)) of the same compound?
**A.** 7170 ng·h/mL

**Q.** What about the Tmax ([1]; po, 160 mg/day, Galunisertib 160 mg/day plus sorafenib, Cycle 1 Day 14, median (range), N 7, read-out: tmax) of the same compound?
**A.** 1.85 h

**Q.** And the Cmax ([1]; po, 160 mg/day, Galunisertib 160 mg/day plus sorafenib, Cycle 1 Day 14, plasma, N 7)?
**A.** 1150 ng/mL

**Q.** And the AUC(0-t) ([1]; po, 300 mg/day, Galunisertib 300 mg/day plus sorafenib, Cycle 1 Day 1, geometric mean (CV%), N 7, read-out: AUC(0-6))?
**A.** 5040 ng·h/mL

**Q.** What about the Tmax ([1]; po, 300 mg/day, Galunisertib 300 mg/day plus sorafenib, Cycle 1 Day 1, median (range), N 7, read-out: tmax) of the same compound?
**A.** 0.93 h

**Q.** What about the Cmax ([1]; po, 300 mg/day, Galunisertib 300 mg/day plus sorafenib, Cycle 1 Day 1, plasma, N 7) of the same compound?
**A.** 1900 ng/mL

**Q.** And the AUC(0-t) ([1]; po, 300 mg/day, Galunisertib 300 mg/day plus sorafenib, Cycle 1 Day 14, geometric mean (CV%), N 4, read-out: AUC(0-6))?
**A.** 5570 ng·h/mL

**Q.** What about the AUC(0-t) ([1]; po, 300 mg/day, Galunisertib 300 mg/day plus sorafenib, Cycle 1 Day 14, geometric mean (CV%), N 4, read-out: AUC(0–24)) of the same compound?
**A.** 10600 ng·h/mL

**Q.** What about the Tmax ([1]; po, 300 mg/day, Galunisertib 300 mg/day plus sorafenib, Cycle 1 Day 14, median (range), N 4, read-out: tmax) of the same compound?
**A.** 2.04 h

**Q.** And the Cmax ([1]; po, 300 mg/day, Galunisertib 300 mg/day plus sorafenib, Cycle 1 Day 14, plasma, N 4)?
**A.** 2000 ng/mL

**Q.** And the AUC(0-inf) [1, 5]?
**A.** 7870 ng·h/mL

**Q.** What about the Vd/F [1, 5] of the same compound?
**A.** 62 L

**Q.** What about the half-life ([1]; po, Galunisertib 160 mg/day plus sorafenib, Cycle 1 Day 14, geometric mean (range), n = 3, read-out: t1/2 (converted)) of the same compound?
**A.** 4.24 h

**Q.** What about the AUC(0-inf) [1, 6] of the same compound?
**A.** 11100 ng·h/mL

**Q.** What about the Vd/F [1, 6] of the same compound?
**A.** 78.1 L

**Q.** And the half-life ([1]; po, Galunisertib 300 mg/day plus sorafenib, Cycle 1 Day 14, geometric mean (range), n = 3, read-out: t1/2 (converted))?
**A.** 4.01 h

**Q.** What about the “median OS” value ([2]; AFP <1.5 ULN (part B), 90% CI 10.4–24.1) of the same compound?
**A.** 16.8 months

**Q.** What about the “median OS” value ([2]; baseline AFP ≥1.5 ULN (part A), 90% CI 5.3–9.3) of the same compound?
**A.** 7.2 months

**Q.** And the “median time-to-progression (TTP)” value ([2]; part A, 90% CI 1.4−2.9)?
**A.** 2.7 months

**Q.** And the “median time-to-progression (TTP)” value ([2]; part B, 90% CI 2.3–5.5)?
**A.** 4.1 months

**Q.** What about the “recommended dose of galunisertib with confirmed tolerability” value [3] of the same compound?
**A.** 150 mg twice daily

**Q.** For `CNC(=O)c1cc(Oc2ccc(NC(=O)Nc3ccc(Cl)c(C(F)(F)F)c3)cc2)ccn1` [sorafenib], which “PK profile of sorafenib in combination with galunisertib” value ([1]; day 14 (with galunisertib) versus day 22 (sorafenib monotherapy), data not shown) is on record?
**A.** comparable to that of sorafenib administered alone

**Q.** And the “median OS” value [4]?
**A.** 10.7 months
